Results published in patent US20140024720A1, “PHARMACEUTICAL COMPOSITION CONTAINING CYCLOBENZAPRINE SUITABLE TO INTRANASAL ADMINISTRATION” (Campiglo Consulting SRL, priority 2011, published 2014).
Counter-ions that a name gives are not always drawn. Like-named read-outs stand apart in the source and are kept apart here.

What was measured:
[1] = pH higher than 7.4, opalescence formation
in vivo = settings: rabbit; for AUC(0-inf) / AUC(0-t) / Cmax / Tmax / half-life: male, New Zealand albino, plasma
Procedure: The plasma levels of cyclobenzaprine (CBZ) were determined after a single intranasal dose of 1.5 mg/kg in a volume of 10 μl, and 3.0 mg/kg in a volume of 20 μl, and after a single oral dose of 1.5 mg/kg in New Zealand albino male rabbits.
1. The oral administration was performed with a 0.15% solution, the intranasal administration with a 15% solution.
2. Six male animals/group were treated with a single dose by intranasal or oral route.
3. Fifteen minutes before the drug administration the central artery of the ear was cannulated with a 25-gauge needle catheter and for each animal 7 blood collections at time 0 (TO, before drug administration) and at 15, 30, 60, 90, 120, 180 minutes after drug administration were performed. Three mL of blood sample were collected in heparinized tubes and the volume replaced with a Ringer-Lactate solution. The plasma samples were obtained from blood samples by centrifugation at 3000 g for 5 min. The plasma samples were be stored at −20±2° C. until the LC/MS/MS analysis.
4. Rabbit plasma concentrations of CBZ were determined using a validated LC-MS/MS method in the calibration range of 0.25-300 ng/mL.
Aliquots of 250 μL of rabbit plasma were spiked with 5 μL of internal standard (IS) solution (containing approximately 5000 ng/mL of IS, Imipramine Hydrochloride) in water:methanol (50/50, v/v), after vortex-mixing, 250 μL of borate buffer were added. After vortex-mixing, 3.5 mL of hexane were added. After vortex-mixing for 10 minutes and centrifugation at 10.000 rpm at +4° C. for 10 minutes, aliquots of 3 mL of organic phase were transferred into a single glass tube and dried under vacuum at 40° C. using a Büchi vacuum system. The residues were re-constituted with 100 μL of 20 Mm ammonium acetate buffer solution, 0.1%:acetonitrile (50/50, v/v) solution. The tubes were then capped, vortex-mixed and centrifugated at 4100 rpm at +4° C. for 10 minutes. The final extracts were transferred into an autosampler vial and 4 μL were injected into the LC-MS/MS system.
Calibration curves plot the ratio of the area of the compound and the IS (y) against the analyte concentration (x). A weighted linear regression function (1/x) is used to fit calibration lines and consequently to calculate CBZ concentrations. The lower and upper limits of quantification are 0.25 and 300 ng/mL of plasma samples.

[2] = cited from earlier work
[3] = inhaled or intranasal, 1.5 mg/kg

For `CN(C)CCC=C1c2ccccc2C=Cc2ccccc21` [Cyclobenzaprine, 3-(5H-dibenzo[a,d]cyclo-epten-5-yliden)-N,N-dimethyl-1-propanamine hydrochloride], the “solubility of cyclobenzaprine base in the buffer solution” value [1] was “not soluble”, the AUC(0-inf) (in vivo; [3]) was 65.8 ng·h/mL and the AUC(0-t) (in vivo; [3]) was 60.1 ng·h/mL. The Cmax (in vivo; [3]) was 69.3 ng/mL, the Tmax (in vivo; [3]) was 30 min and the half-life (in vivo; [3]) was 49.3 min. For the same molecule, the AUC(0-inf) (in vivo; inhaled or intranasal, 3 mg/kg) was 65.6 ng·h/mL, the AUC(0-t) (in vivo; inhaled or intranasal, 3 mg/kg) was 54.6 ng·h/mL and the Cmax (in vivo; inhaled or intranasal, 3 mg/kg) was 65.1 ng/mL. For the same molecule, the Tmax (in vivo; inhaled or intranasal, 3 mg/kg) was 30 min, the half-life (in vivo; inhaled or intranasal, 3 mg/kg) was 93.9 min and the AUC(0-inf) (in vivo; po, 1.5 mg/kg) was 3.44 ng·h/mL. For the same molecule, the AUC(0-t) (in vivo; po, 1.5 mg/kg) was 2.08 ng·h/mL, the Cmax (in vivo; po, 1.5 mg/kg) was 1.28 ng/mL and the Tmax (in vivo; po, 1.5 mg/kg) was 30 min. The half-life (in vivo; po, 1.5 mg/kg) was 124 min, the “rate of absorption by intranasal route compared with oral route” value (in vivo) was “higher” and the “absorption by intranasal route” value (in vivo; intranasal) was “well absorbed”. For the same molecule, the λz (in vivo; intranasal 1.5 mg/kg, 15% solution) was 0.940 h⁻¹, the λz (in vivo; intranasal 3.0 mg/kg, 15% solution) was 0.452 h⁻¹ and the “dose dependence of Cmax and AUC by intranasal route” value (in vivo; intranasal 1.5 and 3.0 mg/kg) was “linear with the dose”. The λz (in vivo; oral 1.5 mg/kg, 0.15% solution) was 0.361 h⁻¹, the tonicity (10% aqueous solution) was “ipertonic” and the tonicity (15% aqueous solution) was “ipertonic”. The NaCl equivalent (aqueous solution containing 5% cyclobenzaprine hydrochloride) was 0.88 g-eq di NaCl, the osmolarity (aqueous solution containing 5% cyclobenzaprine hydrochloride, practically isotonic) was 400 mOsmol/L and the plasmatic half time ([2]; absorbed per os, range 8-37 hours) was 18 h. The “time until effect of a single administration is shown” value ([2]; after oral taking) was “one” and the “duration of effect of a single administration” value ([2]; oral taking) was at least 12 h.
